Results from US12630547B2, “RAS protein degraders, pharmaceutical compositions thereof, and their therapeutic applications” (BioTheryX, Inc., priority 2019, dated 2026).
Read-outs that look alike come from different tables or passages of the source.

How the values were obtained:
Type in all cases: cell-based
H23 cells = experiment: Cell viability assay (CELLTITER-GLO), H23 cells; details: Table 4, 3 days
In short: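 Luminescent CellTiter-Glo readout after 3-day compound treatment (37° C, 5% CO2) of H23 cells plated at 4,000 cells/well in RPMI 1640 plus 10% FBS, DMSO as control. IC50 values given as categorical ranges.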

MV-4-11 cells = experiment: Cell viability assay (CELLTITER-GLO), MV-4-11 cells; details: Homo sapiens, MV4-11, 72 h; Table 1; compound at 10 μM, 3 days; read-out: Effect on MV-4-11 cell viability (% DMSO)
Experimental: MOLM-13 cells, MV-4-11 cells, H23, and H358 cells were independently cultured in RPMI 1640 media supplemented with 10% fetal bovine serum, streptomycin and penicillin. The cells were plated in white walled 96-well plates at 4,000 cells/well. The cells were incubated in DMSO (control) or a compound for 3 days at 37° C. under 5% CO2. A CELLTITER-GLO® reagent (100 μL) was then added to each well. After a 10 min incubation with shaking, luminescence was measured using an ENVISION® multimode plate reader.
In Tables 1 and 2, each compound was tested at 10 μM; and in Table 3, each compound was tested at 1 μM. In Tables 1 to 3, the cell viability values as % DMSO are reported as “A,” “B,” “C,” or “D;” where “A” represents a % viability value of less than 10%; “B” represents a % viability value of no less than 10% and less than 25%; “C” represents a % viability value of no less than 25% and less than 50%; and “D” represents a % viability value of no less than 50%. Compound A is […]

MOLM-13 cells = experiment: Cell viability assay (CELLTITER-GLO), MOLM-13 cells; details: Homo sapiens, MOLM-13, 72 h, 3 days, read-out: Effect on MOLM-13 cell viability (% DMSO); for viability at 10 µM: compound at 10 μM; for viability at 1 µM: Table 3, compound at 1 μM
In short: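 Viability, as % of DMSO control, was read by CellTiter-Glo luminescence after a 3-day compound exposure (single dose of 10 μM or 1 μM) at 37 °C. Cells plated at 4,000/well in RPMI 1640 with 10% FBS. Results reported as categories A <10%, B 10–<25%, C 25–<50%, D ≥50%.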

H358 cells = experiment: Cell viability assay (CELLTITER-GLO), H358 cells; details: 3 days; for viability at 10 µM: Table 1, compound at 10 μM, read-out: Effect on H358 cell viability (% DMSO)
In short: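 Luminescent ATP read-out (CellTiter-Glo) after 3-day incubation at 37 °C of H358 cells plated at 4,000/well in RPMI 1640 with 10% FBS. Values are either IC50 bins (A ≤1 μM through D >10 μM) or % of DMSO viability at 10 μM or 1 μM, bins A <10% through D ≥50%.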

KRAS protein = target: T1, KRAS protein (Homo sapiens, UniProt P01116, G12C); experiment: Protein degradation assay (western blot) in H358 cells; details: 1 μM, 24 h
T1 construct: endogenous in cells; host or cells: H358 cells
Experimental: H358 cells were grown in RPMI 1640 media supplemented with 10% fetal bovine serum, streptomycin, and penicillin. The cells were plated in 10 cm plates in the growth media. The next day, the cells were rinsed in 1× PBS with the media replaced by RPMI1640 supplemented with 2.5% fetal bovine serum, streptomycin, and penicillin. The cells were then treated with 1 μM of a compound for 24 h. Whole cell extracts were prepared using an immunoprecipitation (IP) lysis buffer. Briefly, the cells were washed once in PBS, and the cell pellets were resuspended in the IP lysis buffer and incubated for 15 min on ice. Cells debris was removed by centrifugation and the cleared whole cell lysates were transferred to new tubes for further analysis.
For a western blot analysis, the whole cell protein extracts were separated on 12% SDS-polyacrylamide gels, transferred to nitrocellulose, and probed with primary antibodies. Membranes were subsequently washed and probed with IRDYE® secondary antibodies. The signals were detected using an ODYSSEY® Imaging System. The antibodies used in the assay included anti-KRAS; β-actin mouse monoclonal antibody; IRDYE® 680RD goat anti-rabbit antibody; and IRDYE® 800CW goat anti-mouse antibody.

T1 sequence (P01116 1-188 isoform P01116-2 G12C): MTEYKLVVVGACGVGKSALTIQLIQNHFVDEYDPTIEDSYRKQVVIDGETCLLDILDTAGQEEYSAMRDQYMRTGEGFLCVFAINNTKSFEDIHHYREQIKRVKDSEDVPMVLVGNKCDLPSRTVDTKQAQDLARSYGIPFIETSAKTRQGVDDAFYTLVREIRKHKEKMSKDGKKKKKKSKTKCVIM

Row | IC50 (H358 cells; Homo sapiens, NCI-H358, 72 h, Table 4, read-out: Inhibition of H358 cells, IC50) | Inhibition of H358 cells, IC50 (class) (H358 cells; Table 4) | degradation of KRAS protein (KRAS protein) | Compound | IC50 (H23 cells; Homo sapiens, NCI-H23, 72 h, read-out: Inhibition of H23 cells, IC50) | viability at 10 µM (MV-4-11 cells) | viability at 10 µM (MOLM-13 cells; Table 1) | viability at 1 µM (MOLM-13 cells) | viability at 10 µM (H358 cells; Homo sapiens, NCI-H358, 72 h) | Inhibition of H23 cells, IC50 (class) (H23 cells) | viability at 10 µM (MOLM-13 cells; Table 2)
1 | 0.99 µM |  |  | C=CC(=O)N1CCN(c2ncnc3c(F)c(-c4c(O)cccc4F)c(Cl)cc23)CC1 [A, 1-(4-(6-chloro-8-fluoro-7-(2-fluoro-6-hydroxyphenyl)quinazolin-4-yl)piperazin-1-yl)prop-2-en-1-one, reference compound] | 4.3 µM | 25 to 50% | 25 to 50% | ≥ 50% | 25 to 50% |  | 
2 |  |  |  | C=CC(=O)N1CC(N2Cc3ccc(-c4cc(O)cc5ccccc45)cc3N(CCOCCOCCOCCNc3cccc4c3C(=O)N(C3CCC(=O)NC3=O)C4=O)C2=O)C1 (stereo not shown) [Compound 2, 4-((2-(2-(2-(2-(3-(1-Acryloylazetidin-3-yl)-7-(3-hydroxynaphthalen-1-yl)-2-oxo-3,4-dihydroquinazolin-1(2H)-yl)ethoxy)ethoxy)ethoxy)ethyl)amino)-2-(2,6-dioxopiperidin-3-yl)isoindoline-1,3-dione] |  | < 10% | 10 to 25% |  | 10 to 25% |  | 
3 |  | C′ |  | C=CC(=O)N1CCN(c2ncnc3c(F)c(-c4c(F)cccc4OCCOCCOCCC(=O)NCCNc4cccc5c4C(=O)N(C4CCC(=O)NC4=O)C5=O)c(Cl)cc23)CC1 (stereo not shown) [Compound 1, 3-(2-(2-(2-(4-(4-Acryloylpiperazin-1-yl)-6-chloro-8-fluoroquinazolin-7-yl)-3-fluorophenoxy)ethoxy)ethoxy)-N-(2-((2-(2,6-dioxopiperidin-3-yl)-1,3-dioxoisoindolin-4-yl)amino)ethyl)propanamide] |  | 10 to 25% | 25 to 50% | ≥ 50% | 25 to 50% | C′ | 
4 |  | A′ |  | C=CC(=O)N1C[C@@H]2C(=O)N(CCCCCCCN3CCC(c4cc(F)cc5c4CN(C4CCC(=O)NC4=O)C5=O)CC3)c3cnc4c(F)c(-c5c(O)cccc5F)c(Cl)cc4c3N2C[C@H]1C (stereo partly drawn) [Compound 66, 3-(4-(1-(7-((2R,4aR)-3-Acryloyl-11-chloro-9-fluoro-10-(2-fluoro-6-hydroxyphenyl)-2-methyl-5-oxo-1,2,3,4,4a,5-hexahydro-6H-pyrazino[1′,2′:4,5]pyrazino[2,3-c]quinolin-6-yl)heptyl)piperidin-4-yl)-6-fluoro-1-oxoisoindolin-2-yl)piperidine-2,6-dione] |  |  |  |  |  | B′ | < 10%
5 |  | A′ |  | C=C(Cl)C(=O)N1CCN(c2ncnc3cc(-c4c(F)cccc4OCCCCCCCN4CCC(c5cccc6c5CN(C5CCC(=O)NC5=O)C6=O)CC4)c(Cl)cc23)CC1 (stereo not shown) [Compound 105, 3-(4-(1-(7-(2-(6-Chloro-4-(4-(2-chloroacryloyl)piperazin-1-yl)quinazolin-7-yl)-3-fluorophenoxy)heptyl)piperidin-4-yl)-1-oxoisoindolin-2-yl)piperidine-2,6-dione] |  |  |  |  |  | A′ | < 10%
6 |  | A′ |  | C=C(Cl)C(=O)N1CCN(c2ncnc3c(F)c(-c4c(F)cccc4OCCC4CCC(CN5CCC(c6cc(F)cc7c6CN(C6CCC(=O)NC6=O)C7=O)CC5)CC4)c(Cl)cc23)CC1 (stereo not shown) [Compound 118, 3-(4-(1-((4-(2-(2-(6-Chloro-4-(4-(2-chloroacryloyl)piperazin-1-yl)-8-fluoroquinazolin-7-yl)-3-fluorophenoxy)ethyl)cyclohexyl)methyl)piperidin-4-yl)-6-fluoro-1-oxoisoindolin-2-yl)piperidine-2,6-dione] |  |  |  |  |  | A′ | < 10%
7 |  | B′ |  | CCC(=O)N1CCN(c2nc(OC[C@@H]3CCCN3C)nc3c(F)c(-c4c(F)cccc4OCCCCCCCN4CCC(c5cc(F)cc6c5CN(C5CCC(=O)NC5=O)C6=O)CC4)c(Cl)cc23)CC1 (stereo partly drawn) [Compound 89, 3-(4-(1-(7-(2-(6-Chloro-8-fluoro-2-(((S)-1-methylpyrrolidin-2-yl)methoxy)-4-(4-propionylpiperazin-1-yl)quinazolin-7-yl)-3-fluorophenoxy)heptyl)piperidin-4-yl)-6-fluoro-1-oxoisoindolin-2-yl)piperidine-2,6-dione] |  |  |  |  |  | B′ | < 10%
8 |  | A′ |  | C=C(Cl)C(=O)N1CCN(c2ncnc3c(F)c(-c4c(F)cccc4OCCC4CCC(CCN5CCC(c6cc(F)cc7c6CN(C6CCC(=O)NC6=O)C7=O)CC5)CC4)c(Cl)cc23)C[C@H]1CC#N (stereo partly drawn) [Compound 129, 2-((2R)-4-(6-Chloro-7-(2-(2-(4-(2-(4-(2-(2,6-dioxopiperidin-3-yl)-6-fluoro-1-oxoisoindolin-4-yl)piperidin-1-yl)ethyl)cyclohexyl)ethoxy)-6-fluorophenyl)-8-fluoroquinazolin-4-yl)-1-(2-chloroacryloyl)piperazin-2-yl)acetonitrile] |  |  |  |  |  | B′ | < 10%
9 |  | B′ |  | CCC(=O)N1CCN(c2ncnc3c(F)c(-c4c(F)cccc4OCCC4CCC(CCN5CCC(c6cc(F)cc7c6CN(C6CCC(=O)NC6=O)C7=O)CC5)CC4)c(Cl)cc23)CC1 (stereo not shown) [Compound 84, 3-(4-(1-(2-(4-(2-(2-(6-Chloro-8-fluoro-4-(4-propionylpiperazin-1-yl)quinazolin-7-yl)-3-fluorophenoxy)ethyl)cyclohexyl)ethyl)piperidin-4-yl)-6-fluoro-1-oxoisoindolin-2-yl)piperidine-2,6-dione] |  |  |  |  |  | B′ | < 10%
10 |  | B′ |  | C=C(Cl)C(=O)N1CCN(c2ncnc3c(F)c(-c4c(F)cccc4OCCCCCCCCCCCN4CCC(c5cc(F)cc6c5CN(C5CCC(=O)NC5=O)C6=O)CC4)c(Cl)cc23)CC1 (stereo not shown) [Compound 114, 3-(4-(1-(11-(2-(6-Chloro-4-(4-(2-chloroacryloyl)piperazin-1-yl)-8-fluoroquinazolin-7-yl)-3-fluorophenoxy)undecyl)piperidin-4-yl)-6-fluoro-1-oxoisoindolin-2-yl)piperidine-2,6-dione] |  |  |  |  |  | B′ | < 10%
11 |  | B′ |  | C=CC(=O)N1CCN(c2ncnc3c(F)c(-c4c(F)cccc4OCCCNCc4ccc(COc5cccc6c5CN([C@H]5CCC(=O)NC5=O)C6=O)cc4)c(Cl)cc23)CC1 [Compound 62, (3S)-3-(4-((4-(((3-(2-(4-(4-Acryloylpiperazin-1-yl)-6-chloro-8-fluoroquinazolin-7-yl)-3-fluorophenoxy)propyl)amino)methyl)benzyl)oxy)-1-oxoisoindolin-2-yl)piperidine-2,6-dione] |  |  |  |  |  | B′ | < 10%
12 |  | A′ | about 60% | C=CC(=O)N1CCN(c2ncnc3c(F)c(-c4c(F)cccc4OCCCCCCCN4CCC(c5cc(F)cc6c5CN(C5CCC(=O)NC5=O)C6=O)CC4)c(Cl)cc23)CC1 (stereo not shown) [Compound 36, 3-(4-(1-(7-(2-(4-(4-Acryloylpiperazin-1-yl)-6-chloro-8-fluoroquinazolin-7-yl)-3-fluorophenoxy)heptyl)piperidin-4-yl)-6-fluoro-1-oxoisoindolin-2-yl)piperidine-2,6-dione] |  |  |  |  |  | A′ | < 10%
